Measured values: ChEMBL document CHEMBL5465560, “Selectivity Literature for EUbOPEN Chemogenomic Library” (2024)
Values belong to the molecule of their own block, whether it stands above or below them.

Assays:
[1] = test system: Tyrosine-protein kinase ABL1 (Homo sapiens), P00519 [Q252H]; settings: at 10 µM
[2] = biological target: Calcium/calmodulin-dependent protein kinase type II subunit beta (Homo sapiens) (UniProt Q13554); assay: Selectivity interaction (KinomeScan (DiscoverX)) EUB0000618a CAMK2B; settings: at 10 µM
Chain of Calcium/calmodulin-dependent protein kinase type II subunit beta (Homo sapiens) (Q13554 whole entry): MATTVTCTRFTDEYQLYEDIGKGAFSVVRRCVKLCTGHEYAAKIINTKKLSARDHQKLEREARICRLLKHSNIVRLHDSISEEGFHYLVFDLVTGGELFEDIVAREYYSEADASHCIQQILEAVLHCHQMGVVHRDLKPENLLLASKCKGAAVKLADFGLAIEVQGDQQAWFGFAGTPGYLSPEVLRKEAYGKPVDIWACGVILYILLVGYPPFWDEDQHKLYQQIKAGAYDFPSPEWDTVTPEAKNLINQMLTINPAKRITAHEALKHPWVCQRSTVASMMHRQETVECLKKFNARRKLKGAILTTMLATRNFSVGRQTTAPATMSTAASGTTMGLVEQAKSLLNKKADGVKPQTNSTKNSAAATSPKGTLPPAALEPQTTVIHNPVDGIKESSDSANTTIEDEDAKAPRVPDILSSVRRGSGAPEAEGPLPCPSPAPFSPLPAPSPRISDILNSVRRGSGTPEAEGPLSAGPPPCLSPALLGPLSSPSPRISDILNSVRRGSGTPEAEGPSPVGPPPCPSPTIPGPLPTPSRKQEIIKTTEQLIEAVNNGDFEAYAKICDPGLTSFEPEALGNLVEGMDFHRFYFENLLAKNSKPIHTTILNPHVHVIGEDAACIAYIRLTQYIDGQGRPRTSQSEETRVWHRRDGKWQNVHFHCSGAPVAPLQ

[3] = biological target: T1, Phosphatidylinositol 5-phosphate 4-kinase type-2 beta (Homo sapiens) (UniProt P78356); assay: Selectivity interaction (KinomeScan (DiscoverX)) EUB0001619a PIP4K2B; settings: at 1 µM
T1 sequence (whole entry): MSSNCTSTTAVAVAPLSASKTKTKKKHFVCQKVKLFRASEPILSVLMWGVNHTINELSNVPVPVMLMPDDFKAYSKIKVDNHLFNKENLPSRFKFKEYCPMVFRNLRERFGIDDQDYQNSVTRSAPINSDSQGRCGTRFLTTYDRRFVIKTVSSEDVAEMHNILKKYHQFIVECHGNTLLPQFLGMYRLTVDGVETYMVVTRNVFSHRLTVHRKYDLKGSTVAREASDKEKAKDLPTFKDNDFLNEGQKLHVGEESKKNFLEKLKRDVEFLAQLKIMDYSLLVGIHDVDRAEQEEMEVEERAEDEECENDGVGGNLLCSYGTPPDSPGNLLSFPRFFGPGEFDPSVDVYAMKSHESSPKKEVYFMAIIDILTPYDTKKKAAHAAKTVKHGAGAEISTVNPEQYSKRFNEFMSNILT

[4] = biological target: T2, Serine/threonine-protein kinase DCLK1 (Homo sapiens) (UniProt O15075); assay: Selectivity interaction (Kinase panel (DSF assay)) EUB0001558a DCLK1
T2 sequence (whole entry): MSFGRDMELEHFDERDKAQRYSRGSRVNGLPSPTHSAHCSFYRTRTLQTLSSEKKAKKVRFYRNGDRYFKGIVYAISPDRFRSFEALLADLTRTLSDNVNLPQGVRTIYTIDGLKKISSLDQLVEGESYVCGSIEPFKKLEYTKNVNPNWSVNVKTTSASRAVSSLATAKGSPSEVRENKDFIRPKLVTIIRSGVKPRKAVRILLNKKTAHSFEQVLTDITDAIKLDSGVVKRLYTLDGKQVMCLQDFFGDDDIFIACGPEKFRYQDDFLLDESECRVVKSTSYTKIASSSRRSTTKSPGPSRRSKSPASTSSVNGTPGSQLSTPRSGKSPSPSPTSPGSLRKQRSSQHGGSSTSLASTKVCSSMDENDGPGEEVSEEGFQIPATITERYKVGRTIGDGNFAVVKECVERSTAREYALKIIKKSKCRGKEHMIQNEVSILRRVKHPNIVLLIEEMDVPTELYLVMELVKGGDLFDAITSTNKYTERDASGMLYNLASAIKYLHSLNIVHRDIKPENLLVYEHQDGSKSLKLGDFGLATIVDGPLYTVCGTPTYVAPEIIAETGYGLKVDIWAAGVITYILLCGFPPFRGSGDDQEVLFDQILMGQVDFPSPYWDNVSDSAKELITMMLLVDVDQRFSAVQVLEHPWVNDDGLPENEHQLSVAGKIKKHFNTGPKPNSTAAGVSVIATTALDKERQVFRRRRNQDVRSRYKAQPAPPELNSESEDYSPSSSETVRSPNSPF

[5] = biological target: Serine/threonine-protein kinase pim-3 (Homo sapiens) (UniProt Q86V86); assay: Selectivity interaction (Kinase panel (DSF assay)) EUB0001558a PIM3
[6] = biological target: Serine/threonine-protein kinase SIK1 (Homo sapiens) (UniProt P57059); settings: at 10 µM
Chain of Serine/threonine-protein kinase SIK1 (Homo sapiens) (P57059 whole entry): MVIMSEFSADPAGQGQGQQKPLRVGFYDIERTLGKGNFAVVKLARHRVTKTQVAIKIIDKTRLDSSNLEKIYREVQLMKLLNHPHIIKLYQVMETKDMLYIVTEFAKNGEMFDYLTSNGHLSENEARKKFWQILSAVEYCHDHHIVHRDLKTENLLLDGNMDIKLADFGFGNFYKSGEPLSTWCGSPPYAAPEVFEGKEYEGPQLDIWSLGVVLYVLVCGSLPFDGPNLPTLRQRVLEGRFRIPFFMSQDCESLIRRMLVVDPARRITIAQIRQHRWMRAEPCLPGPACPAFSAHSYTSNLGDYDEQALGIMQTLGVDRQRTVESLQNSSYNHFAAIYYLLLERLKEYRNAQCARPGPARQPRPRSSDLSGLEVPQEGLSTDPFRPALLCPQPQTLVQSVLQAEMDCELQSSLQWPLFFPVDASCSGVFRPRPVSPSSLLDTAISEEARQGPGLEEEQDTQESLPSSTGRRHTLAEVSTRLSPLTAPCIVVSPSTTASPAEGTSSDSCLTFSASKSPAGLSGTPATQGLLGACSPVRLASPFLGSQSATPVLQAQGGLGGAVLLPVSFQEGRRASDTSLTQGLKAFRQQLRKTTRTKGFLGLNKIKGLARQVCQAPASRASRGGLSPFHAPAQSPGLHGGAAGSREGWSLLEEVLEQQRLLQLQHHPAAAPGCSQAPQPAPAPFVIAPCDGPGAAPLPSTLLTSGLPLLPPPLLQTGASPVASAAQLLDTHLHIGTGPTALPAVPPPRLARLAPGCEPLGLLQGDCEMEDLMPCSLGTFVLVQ

[7] = biological target: Mitogen-activated protein kinase 14 (Homo sapiens, UniProt Q16539); assay: Selectivity interaction (ActivX KiNativ screen (kinase selectivity in THP-1 cell lysates)) EUB0000639a MAPK14; type: subcellular; settings: lysate, at 0.04 µM
Chain of Mitogen-activated protein kinase 14 (Q16539 whole entry): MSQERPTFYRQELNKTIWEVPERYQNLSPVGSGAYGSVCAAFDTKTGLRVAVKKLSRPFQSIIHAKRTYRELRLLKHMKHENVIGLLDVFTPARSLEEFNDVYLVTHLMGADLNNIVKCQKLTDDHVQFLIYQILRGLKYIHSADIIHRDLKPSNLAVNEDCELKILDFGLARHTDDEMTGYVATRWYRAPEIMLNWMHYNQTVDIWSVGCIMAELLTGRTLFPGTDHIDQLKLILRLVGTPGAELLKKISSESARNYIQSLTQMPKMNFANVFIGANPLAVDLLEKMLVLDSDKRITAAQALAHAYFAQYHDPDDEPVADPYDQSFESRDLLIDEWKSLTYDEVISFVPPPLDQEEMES

[8] = biological target: Serine/threonine-protein kinase 26 (Homo sapiens, UniProt Q9P289); assay: Selectivity interaction (ActivX KiNativ screen (kinase selectivity in THP-1 cell lysates)) EUB0000639a STK26; type: subcellular; settings: lysate, at 0.04 µM
Chain of Serine/threonine-protein kinase 26 (Q9P289 2-416 limits assumed): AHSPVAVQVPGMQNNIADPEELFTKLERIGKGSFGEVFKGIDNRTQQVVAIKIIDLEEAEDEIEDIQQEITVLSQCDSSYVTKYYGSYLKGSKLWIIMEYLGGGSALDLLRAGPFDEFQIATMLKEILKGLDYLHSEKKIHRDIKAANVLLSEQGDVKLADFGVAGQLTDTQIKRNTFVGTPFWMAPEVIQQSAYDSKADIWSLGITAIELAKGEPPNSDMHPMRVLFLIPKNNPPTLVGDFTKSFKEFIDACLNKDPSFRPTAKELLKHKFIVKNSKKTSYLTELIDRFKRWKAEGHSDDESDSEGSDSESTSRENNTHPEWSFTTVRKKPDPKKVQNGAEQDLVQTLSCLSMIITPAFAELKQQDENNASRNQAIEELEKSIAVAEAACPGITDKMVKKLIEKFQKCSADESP

[9] = biological target: T3, Protein kinase C iota type (Homo sapiens) (UniProt P41743); assay: Selectivity interaction (ActivX KiNativ screen (kinase selectivity in THP-1 cell lysates)) EUB0000639a PRKCI; type: subcellular; settings: lysate, at 1 µM
T3 sequence (whole entry): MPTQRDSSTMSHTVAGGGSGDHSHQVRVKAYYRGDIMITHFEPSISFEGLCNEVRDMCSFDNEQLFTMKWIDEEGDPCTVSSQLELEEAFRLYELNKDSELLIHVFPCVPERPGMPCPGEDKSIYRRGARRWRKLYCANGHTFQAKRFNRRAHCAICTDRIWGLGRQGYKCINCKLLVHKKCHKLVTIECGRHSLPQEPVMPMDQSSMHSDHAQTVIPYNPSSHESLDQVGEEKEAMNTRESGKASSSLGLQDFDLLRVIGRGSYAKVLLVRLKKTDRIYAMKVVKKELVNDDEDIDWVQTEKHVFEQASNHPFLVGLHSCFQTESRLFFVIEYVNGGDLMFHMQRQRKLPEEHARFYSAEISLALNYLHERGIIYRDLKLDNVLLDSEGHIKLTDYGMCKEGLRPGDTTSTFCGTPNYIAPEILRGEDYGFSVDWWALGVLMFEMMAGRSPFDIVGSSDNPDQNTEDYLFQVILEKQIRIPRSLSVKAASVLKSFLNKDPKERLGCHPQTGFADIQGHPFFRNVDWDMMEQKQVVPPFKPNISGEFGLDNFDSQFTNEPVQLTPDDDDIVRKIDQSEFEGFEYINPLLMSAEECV

[10] = biological target: Serine/threonine-protein kinase PAK 3 (Homo sapiens) (UniProt O75914); assay: Selectivity interaction (Kinase panel (Invitrogen)) EUB0000639a PAK3; settings: at 200 nM
Chain of Serine/threonine-protein kinase PAK 3 (Homo sapiens) (O75914 whole entry, looked up): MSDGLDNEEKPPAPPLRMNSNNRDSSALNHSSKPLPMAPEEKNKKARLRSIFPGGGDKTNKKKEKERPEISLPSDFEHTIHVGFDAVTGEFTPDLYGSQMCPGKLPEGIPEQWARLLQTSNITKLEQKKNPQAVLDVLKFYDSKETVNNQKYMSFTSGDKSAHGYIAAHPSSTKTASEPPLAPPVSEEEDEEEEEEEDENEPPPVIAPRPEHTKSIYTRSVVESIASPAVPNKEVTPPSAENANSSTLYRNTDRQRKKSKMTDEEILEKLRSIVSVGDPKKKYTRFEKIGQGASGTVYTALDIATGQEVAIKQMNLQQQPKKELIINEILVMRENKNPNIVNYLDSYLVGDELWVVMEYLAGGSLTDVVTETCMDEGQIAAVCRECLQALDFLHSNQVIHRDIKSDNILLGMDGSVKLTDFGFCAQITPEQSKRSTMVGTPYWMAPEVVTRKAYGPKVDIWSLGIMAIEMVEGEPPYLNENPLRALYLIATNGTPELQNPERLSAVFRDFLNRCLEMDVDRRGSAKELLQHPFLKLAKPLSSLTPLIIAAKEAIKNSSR

[11] = biological target: T4, Serine/threonine-protein kinase NLK (Homo sapiens) (UniProt Q9UBE8); assay: Selectivity interaction (ProQinase) EUB0000171b NLK
T4 sequence (whole entry): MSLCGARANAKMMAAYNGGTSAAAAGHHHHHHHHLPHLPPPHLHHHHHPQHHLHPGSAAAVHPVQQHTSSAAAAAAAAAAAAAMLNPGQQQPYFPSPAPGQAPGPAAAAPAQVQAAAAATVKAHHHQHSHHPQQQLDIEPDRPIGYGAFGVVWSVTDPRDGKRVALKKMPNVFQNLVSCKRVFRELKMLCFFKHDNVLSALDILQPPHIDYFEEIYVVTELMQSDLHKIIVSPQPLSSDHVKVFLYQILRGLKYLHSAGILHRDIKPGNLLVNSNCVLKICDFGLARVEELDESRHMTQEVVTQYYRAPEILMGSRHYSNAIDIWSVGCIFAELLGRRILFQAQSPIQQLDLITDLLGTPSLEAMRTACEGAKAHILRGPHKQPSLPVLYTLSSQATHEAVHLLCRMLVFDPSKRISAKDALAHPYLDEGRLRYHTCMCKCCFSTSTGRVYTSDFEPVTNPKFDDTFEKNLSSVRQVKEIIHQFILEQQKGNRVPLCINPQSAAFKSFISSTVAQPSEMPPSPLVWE

% of control [1]: 100%
Structure (SMILES): CCN(CC)CCCCNc1ncc2cc(-c3cc(OC)cc(OC)c3)c(NC(=O)NC(C)(C)C)nc2n1

Structure (SMILES): O[C@H]1CC[C@H](Nc2ncc3nc(Nc4c(F)cc(F)cc4F)n([C@H]4CCOC4)c3n2)CC1
% of control [2]: 100%

Structure (SMILES): N#Cc1cccc(-c2c[nH]c3ncnc(N4CCOCC4)c23)c1
% of control [3]: 23%

Structure (SMILES): CC(C)(O)[C@H](F)CN1Cc2cc(NC(=O)c3cnn4cccnc34)c(N3CCOCC3)cc2C1=O
dTM [4]: -1 K
dTM [5]: 1 K

Structure (SMILES): Cc1cc([C@@H](C)Nc2ccccc2C(=O)O)c2nc(N3CCOCC3)cc(=O)n2c1 [AZD-6482]
% of control [6]: 100%

% of inhibition [7]: 5.4%
% of inhibition [8]: -3.8%
% of inhibition [9]: 2.2%
% of inhibition [10]: 0.439%
Structure (SMILES): CC[C@@H]1[C@H](F)C(=O)N[C@@H]1COc1nccc2cc(C(N)=O)c(OC)cc12 [ZIMLOVISERTIB]

% of control ([11]; at 1 µM): 86%
% of control ([11]; at 5 µM): 37%
Structure (SMILES): C=CC(=O)Nc1cccc(C(=O)Nc2ccc(Nc3cc(-c4[nH]c(SC)nc4C)ccn3)cc2)c1
